{"source": "patent US20250312469A1", "about": "(CANGET BIOTEKPHARMA, priority 2024, published 2025)", "key": {"[1]": {"system": "p53, Mdm2, AR, AR-Vs, c-Myc, MdmX", "experiment": "Western blot/RT-PCR of p53, Mdm2, AR, AR-Vs, c-Myc, MdmX in PCa cells", "format": "cell-based, human"}, "[2]": {"system": "P-gp", "experiment": "in vitro", "settings": "human"}, "[3]": {"system": "TA98", "experiment": "Ames Bacterial Reverse Mutation Assay"}, "[4]": {"biological_target": "human serum albumin (HSA) (Homo sapiens, UniProt P02768)", "sequence (P02768 25-609)": "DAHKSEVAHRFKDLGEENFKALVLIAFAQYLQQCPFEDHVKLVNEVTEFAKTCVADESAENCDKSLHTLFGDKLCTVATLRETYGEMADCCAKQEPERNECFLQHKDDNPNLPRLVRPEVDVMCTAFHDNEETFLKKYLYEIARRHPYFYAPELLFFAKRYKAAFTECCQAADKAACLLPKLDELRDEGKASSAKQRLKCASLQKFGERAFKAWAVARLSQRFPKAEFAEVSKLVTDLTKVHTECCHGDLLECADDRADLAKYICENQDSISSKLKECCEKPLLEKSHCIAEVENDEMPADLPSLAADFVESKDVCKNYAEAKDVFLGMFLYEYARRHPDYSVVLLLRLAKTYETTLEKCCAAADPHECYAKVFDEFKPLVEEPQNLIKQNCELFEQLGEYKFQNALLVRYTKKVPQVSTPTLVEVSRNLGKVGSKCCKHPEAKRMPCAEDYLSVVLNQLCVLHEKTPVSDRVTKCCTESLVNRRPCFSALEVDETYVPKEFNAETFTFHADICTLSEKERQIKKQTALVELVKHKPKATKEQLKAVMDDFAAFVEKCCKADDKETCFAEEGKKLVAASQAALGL", "experiment": "UV spectra (310-450 nm) with HSA", "format": "physicochemical"}, "[5]": {"system": "22Rv1 CRPC tumors", "experiment": "22Rv1 CRPC tumor model"}, "[6]": {"biological_target": "T1, USP2a (Homo sapiens, UniProt O75604)", "T1 sequence (O75604 1-605)": "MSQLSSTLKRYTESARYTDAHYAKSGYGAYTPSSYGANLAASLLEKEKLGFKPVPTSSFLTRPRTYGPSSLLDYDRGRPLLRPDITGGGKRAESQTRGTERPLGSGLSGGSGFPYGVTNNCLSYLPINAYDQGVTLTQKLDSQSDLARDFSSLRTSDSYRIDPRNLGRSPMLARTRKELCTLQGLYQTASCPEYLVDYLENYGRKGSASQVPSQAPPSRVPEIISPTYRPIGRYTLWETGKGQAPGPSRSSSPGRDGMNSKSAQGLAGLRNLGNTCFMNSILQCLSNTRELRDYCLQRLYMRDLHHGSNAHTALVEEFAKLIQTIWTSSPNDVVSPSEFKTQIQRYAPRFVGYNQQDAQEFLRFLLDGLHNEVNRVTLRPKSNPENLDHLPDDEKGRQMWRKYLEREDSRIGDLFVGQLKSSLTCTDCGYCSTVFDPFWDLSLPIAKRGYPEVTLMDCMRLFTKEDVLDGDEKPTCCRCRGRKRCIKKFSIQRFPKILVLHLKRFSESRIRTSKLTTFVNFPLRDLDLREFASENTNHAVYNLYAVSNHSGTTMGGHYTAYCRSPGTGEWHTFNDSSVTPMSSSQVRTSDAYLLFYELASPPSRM", "experiment": "USP2a deubiquitinase in vitro reconstitution assay", "settings": "50 nM FL118; polyUb MdmX"}, "[7]": {"system": "TA97a", "experiment": "Ames Bacterial Reverse Mutation Assay", "settings": "for Background Lawn Code / Colony Counts Average / Colony Counts Replicate 1-3: TA97a"}, "[8]": {"biological_target": "DDX5 (Homo sapiens, UniProt P17844)", "sequence (P17844 whole entry)": "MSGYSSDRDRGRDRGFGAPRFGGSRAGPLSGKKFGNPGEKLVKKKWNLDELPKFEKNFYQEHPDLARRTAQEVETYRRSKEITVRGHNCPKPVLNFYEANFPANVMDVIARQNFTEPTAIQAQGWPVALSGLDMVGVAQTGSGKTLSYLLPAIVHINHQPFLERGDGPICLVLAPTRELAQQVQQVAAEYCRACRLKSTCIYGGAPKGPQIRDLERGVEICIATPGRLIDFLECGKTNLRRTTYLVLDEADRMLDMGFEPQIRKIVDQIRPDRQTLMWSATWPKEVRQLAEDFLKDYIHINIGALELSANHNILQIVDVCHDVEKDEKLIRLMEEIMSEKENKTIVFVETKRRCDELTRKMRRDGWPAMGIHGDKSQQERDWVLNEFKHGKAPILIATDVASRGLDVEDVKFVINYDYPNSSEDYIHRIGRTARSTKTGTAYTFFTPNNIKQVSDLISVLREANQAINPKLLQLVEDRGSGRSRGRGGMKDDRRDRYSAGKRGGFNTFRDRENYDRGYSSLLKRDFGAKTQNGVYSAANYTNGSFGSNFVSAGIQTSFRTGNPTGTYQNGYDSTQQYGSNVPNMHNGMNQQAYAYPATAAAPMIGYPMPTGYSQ", "experiment": "Isothermal titration calorimetry (ITC), Flag-DDX5", "format": "binding", "settings": "from ITC KD"}, "[9]": {"system": "Panc-1 and BxPC-3 cells", "experiment": "Cell attachment after FL118 pretreatment", "format": "cell-based, human", "settings": "24 h pretreatment, reseeded", "experimental": "The harvested cells were then reseeded at an expected 30-60% confluence if all cell attached to the cell cultural dish. […] Representative cell attachment images were taken 4-16 hours dependent on control cell attachment speed after cell seeding. Quantitative analysis of non-attached cell numbers was documented in parallel for each condition."}}, "note": "“And” between values parts separate entries of the source, which are not always exact repeats. Identical values can stand only once.", "data": [{"smiles": "CCC1(O)C(=O)OCc2c1cc1n(c2=O)Cc2cc3cc4c(cc3nc2-1)OCO4", "note": "(centres unmarked) [FL118]", "values": [{"measurement": "AR mRNA", "setting": "[1]", "result": "decrease AR mRNA levels"}, {"measurement": "expression of p53, Mdm2, AR, AR-Vs, MdmX, c-Myc", "setting": "[1]", "result": "induces the expression of p53 (p21 increase is a hallmark of p53 activation) and Mdm2 but inhibits AR, AR-Vs, MdmX, and c-Myc"}, {"measurement": "Papp A→B at 120 min, 1 μM", "setting": "[2]; Caco-2, pH 7.4, Papp AVG, Caco-2, A-to-B, without valspodar", "result": 6.97, "unit": "×10⁻⁶ cm/s"}, {"measurement": "Papp B→A at 120 min, 1 μM", "setting": "[2]; Caco-2, pH 7.4, Papp AVG, Caco-2, B-to-A, without valspodar", "result": 8.1, "unit": "×10⁻⁶ cm/s"}, {"measurement": "Papp A→B at 120 min, 1 μM", "setting": "[2]; Caco-2, pH 7.4, Papp R1, Caco-2, A-to-B, without valspodar", "result": 7.27, "unit": "×10⁻⁶ cm/s"}, {"measurement": "Papp B→A at 120 min, 1 μM", "setting": "[2]; Caco-2, pH 7.4, Papp R1, Caco-2, B-to-A, without valspodar", "result": 7.35, "unit": "×10⁻⁶ cm/s"}, {"measurement": "Papp A→B at 120 min, 1 μM", "setting": "[2]; Caco-2, pH 7.4, Papp R2, Caco-2, A-to-B, without valspodar", "result": 6.67, "unit": "×10⁻⁶ cm/s"}, {"measurement": "Papp B→A at 120 min, 1 μM", "setting": "[2]; Caco-2, pH 7.4, Papp R2, Caco-2, B-to-A, without valspodar", "result": 8.86, "unit": "×10⁻⁶ cm/s"}, {"measurement": "recovery at 120 min, 1 µM", "setting": "[2]; Caco-2, pH 7.4, Recovery (%), Caco-2, A-to-B, without valspodar", "result": 43, "unit": "%"}, {"measurement": "recovery at 120 min, 1 µM", "setting": "[2]; Caco-2, pH 7.4, Recovery (%), Caco-2, B-to-A, without valspodar", "result": 48, "unit": "%"}, {"measurement": "recovery at 120 min, 1 µM", "setting": "[2]; Caco-2, pH 7.4, with valspodar 1 µM, Recovery (%), Caco-2, A-to-B, + 1 μM Valspodar", "result": 46, "unit": "%"}, {"measurement": "recovery at 120 min, 1 µM", "setting": "[2]; Caco-2, pH 7.4, with valspodar 1 µM, Recovery (%), Caco-2, B-to-A, + 1 μM Valspodar", "result": 48, "unit": "%"}, {"measurement": "bacterial strain mutation", "setting": "[3]", "result": "does not induce"}, {"measurement": "mean revertant colonies over negative control", "setting": "[3]; +/− S9", "result": "less than 2 fold"}, {"measurement": "Background Lawn Code", "setting": "[3]; TA98, 0.010 μM +S9", "result": 1}, {"measurement": "Colony Counts Average", "setting": "[3]; TA98, 0.010 μM +S9", "result": 38}, {"measurement": "Colony Counts Replicate 1-3", "setting": "[3]; TA98, 0.010 μM +S9", "result": "32 and 37 and 45"}, {"measurement": "Background Lawn Code", "setting": "[3]; TA98, 0.010 μM −S9", "result": 1}, {"measurement": "Colony Counts Average", "setting": "[3]; TA98, 0.010 μM −S9", "result": 38}, {"measurement": "Colony Counts Replicate 1-3", "setting": "[3]; TA98, 0.010 μM −S9", "result": "29 and 53 and 32"}, {"measurement": "Background Lawn Code", "setting": "[3]; TA98, 0.10 μM +S9", "result": 1}, {"measurement": "Colony Counts Average", "setting": "[3]; TA98, 0.10 μM +S9", "result": 44}, {"measurement": "Colony Counts Replicate 1-3", "setting": "[3]; TA98, 0.10 μM +S9", "result": "45 and 41 and 46"}, {"measurement": "Background Lawn Code", "setting": "[3]; TA98, 0.10 μM −S9", "result": 1}, {"measurement": "Colony Counts Average", "setting": "[3]; TA98, 0.10 μM −S9", "result": 24}, {"measurement": "Colony Counts Replicate 1-3", "setting": "[3]; TA98, 0.10 μM −S9", "result": "36 and 20 and 15"}, {"measurement": "Background Lawn Code", "setting": "[3]; TA98, 1.0 μM +S9", "result": 1}, {"measurement": "Colony Counts Average", "setting": "[3]; TA98, 1.0 μM +S9", "result": 44}, {"measurement": "Colony Counts Replicate 1-3", "setting": "[3]; TA98, 1.0 μM +S9", "result": "35 and 45 and 52"}, {"measurement": "Background Lawn Code", "setting": "[3]; TA98, 1.0 μM −S9", "result": 1}, {"measurement": "Colony Counts Average", "setting": "[3]; TA98, 1.0 μM −S9", "result": 23}, {"measurement": "Colony Counts Replicate 1-3", "setting": "[3]; TA98, 1.0 μM −S9", "result": "24 and 26 and 19"}, {"measurement": "interaction with HSA (UV absorbance decrease)", "setting": "[4]; 10 μM in PBS with 4% HSA", "result": "strong interaction"}, {"measurement": "interaction with HSA (UV absorbance decrease)", "setting": "[4]; 10 μM, high NaCl salt, 4% HSA", "result": "strong interaction"}, {"measurement": "antitumor efficacy", "setting": "[5]; 5 mg/kg oral, weekly×4", "result": "completely inhibited 22Rv1 tumor growth"}, {"measurement": "toxicity (clinical observations, body weight)", "setting": "[5]; therapeutic dose", "result": "exhibited no toxicity"}, {"measurement": "USP2a deubiquitinase activity", "setting": "[6]", "result": "inhibited USP2a deubiquitinase activity"}, {"measurement": "bacterial strain mutation", "setting": "[7]", "result": "does not induce"}, {"measurement": "mean revertant colonies over negative control", "setting": "[7]; +/− S9", "result": "less than 2 fold"}, {"measurement": "Background Lawn Code", "setting": "[7]; 0.010 μM +S9", "result": 1}, {"measurement": "Colony Counts Average", "setting": "[7]; 0.010 μM +S9", "result": 141}, {"measurement": "Colony Counts Replicate 1-3", "setting": "[7]; 0.010 μM +S9", "result": "123 and 140 and 161"}, {"measurement": "Background Lawn Code", "setting": "[7]; 0.010 μM −S9", "result": 1}, {"measurement": "Colony Counts Average", "setting": "[7]; 0.010 μM −S9", "result": 101}, {"measurement": "Colony Counts Replicate 1-3", "setting": "[7]; 0.010 μM −S9", "result": "108 and 105 and 90"}, {"measurement": "Background Lawn Code", "setting": "[7]; 0.10 μM +S9", "result": 1}, {"measurement": "Colony Counts Average", "setting": "[7]; 0.10 μM +S9", "result": 172}, {"measurement": "Colony Counts Replicate 1-3", "setting": "[7]; 0.10 μM +S9", "result": "189 and 150 and 178"}, {"measurement": "Background Lawn Code", "setting": "[7]; 0.10 μM −S9", "result": 1}, {"measurement": "Colony Counts Average", "setting": "[7]; 0.10 μM −S9", "result": 95}, {"measurement": "Colony Counts Replicate 1-3", "setting": "[7]; 0.10 μM −S9", "result": "116 and 87 and 82"}, {"measurement": "Background Lawn Code", "setting": "[7]; 1.0 μM +S9", "result": 1}, {"measurement": "Colony Counts Average", "setting": "[7]; 1.0 μM +S9", "result": 142}, {"measurement": "Colony Counts Replicate 1-3", "setting": "[7]; 1.0 μM +S9", "result": "140 and 146 and 139"}, {"measurement": "Background Lawn Code", "setting": "[7]; 1.0 μM −S9", "result": 1}, {"measurement": "Colony Counts Average", "setting": "[7]; 1.0 μM −S9", "result": 119}, {"measurement": "Colony Counts Replicate 1-3", "setting": "[7]; 1.0 μM −S9", "result": "111 and 113 and 134"}, {"measurement": "FL118 binding to DDX5 versus Top1 (times stronger)", "setting": "[8]", "result": "about 10"}, {"measurement": "cell attachment", "setting": "[9]", "result": "exhibited cell attachment defect"}]}]}
